Data reported in patent US8716237B2, “Methods for the treatment or prevention of hemorrhagic conditions” (University of Rochester, priority 2007, dated 2014).

How the values were obtained:
[1] = test system: PAI-1; experiment: PAI-1 induction in BEAS-2B, SAEC and NHBE cells; type: cell-based, human; conditions: SB203580
Text: J. Physiol. Lung Cell. Mol. Physiol. 281:L616-23 (2001), and Hasegawa et al., “Decreased Intracellular Iron Availability Suppresses Epithelial Cell Surface Plasmin Generation. Transcriptional and Post-transcriptional Effects on u-PA and PAI-1 Expression,” Am. J. Respir. Cell. Mol. Biol. 21:275-82 (1999), each of which is hereby incorporated by reference in its entirety. Wild type and Cyld-deficient mouse embryonic fibroblasts were obtained from E13 embryos and maintained in DMEM supplemented with 10% FBS (Invitrogen). […]
Cells were cultured on 12-well plates and transfected with various expression plasmids, as described in Examples 1-15 and the Brief Description of the Drawings. […] After 5 hours, the cells were harvested for either RNA extraction and real-time quantitative PCR analysis as described in the Examples or luciferase assay. […]
Total RNA was isolated with TRIzol reagent (Invitrogen) by following the manufacturer's instructions. Real-Time Quantitative RT-PCR analysis of PAI-1 and CYLD were performed as described in Jono et al., “NF-κB Is Essential for Induction of CYLD, the Negative Regulator of NF-κB: Evidence for a Novel Inducible Autoregulatory Feedback Pathway,” J. Biol. Chem. 279:36171-4 (2004), which is hereby incorporated by reference in its entirety. […]

[2] = test system: PAI-1; experiment: PAI-1 mRNA expression in A549 cells (Q-PCR); type: cell-based, human; conditions: SB203580 pretreatment (1 μM, 2 hours)
Method: Cells were cultured on 12-well plates and transfected with various expression plasmids, as described in Examples 1-15 and the Brief Description of the Drawings. All transient transfections were carried out in triplicate using TransIT-LT1 reagent (Minis) following the manufacturer's instructions. […] Transfected cells were pretreated with or without chemical inhibitors including SB203580 (1 μM) for 2 hours. S.p. or pneumolysin was then added to the transfected cells 42 hours after transfection. After 5 hours, the cells were harvested for either RNA extraction and real-time quantitative PCR analysis as described in the Examples or luciferase assay. […]
Total RNA was isolated with TRIzol reagent (Invitrogen) by following the manufacturer's instructions. Real-Time Quantitative RT-PCR analysis of PAI-1 and CYLD were performed as described in Jono et al., “NF-κB Is Essential for Induction of CYLD, the Negative Regulator of NF-κB: Evidence for a Novel Inducible Autoregulatory Feedback Pathway,” J. Biol. Chem. 279:36171-4 (2004), which is hereby incorporated by reference in its entirety. […] Relative quantity of PAI-1 mRNA was obtained using comparative CT Method and was normalized by Cyclophilin and GAPDH as an endogenous control for human and mouse, respectively (Applied Biosystems).

C[S+]([O-])c1ccc(-c2nc(-c3ccncc3)c(-c3ccc(F)cc3)[nH]2)cc1 (centres unmarked) [SB203580]
PAI-1 induction by S. pneumoniae WT and PLY [1]: inhibited PAI-1 induction
S. pneumoniae-induced PAI-1 expression [2]: greatly reduced S. pneumoniae-induced PAI-1 expression
